Measurements as given in paper PMC11406361, “Several orphan solute carriers functionally identified as organic cation transporters: Substrates specificity compared with known cation transporters” (The Journal of Biological Chemistry, 2024).
Peptide text beside a SMILES is read from it.

The compounds below were run against SLC35G3 (Homo sapiens, UniProt Q8N808) (assay: Uptake ratio screen, SLC35G3-overexpressing HEK293 over empty vector cells). Details: not given.
Type: cell-based
Parameters: by amplifying the entire gene-of-interest within the HEK293 genome via a long-range PCR

SLC35G3, sequence (Q8N808 whole entry): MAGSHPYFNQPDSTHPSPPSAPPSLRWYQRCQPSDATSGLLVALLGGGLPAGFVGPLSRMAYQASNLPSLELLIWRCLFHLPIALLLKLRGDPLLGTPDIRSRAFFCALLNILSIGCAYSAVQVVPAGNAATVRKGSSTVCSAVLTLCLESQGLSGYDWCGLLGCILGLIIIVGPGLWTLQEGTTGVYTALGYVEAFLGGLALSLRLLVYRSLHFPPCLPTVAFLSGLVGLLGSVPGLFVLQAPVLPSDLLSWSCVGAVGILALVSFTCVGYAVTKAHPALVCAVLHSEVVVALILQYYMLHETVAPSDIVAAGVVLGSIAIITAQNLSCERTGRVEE

Compared with `C[C@H](N)[C@@H](O)c1ccccc1` [Cathine ((+)-Norpseudoephedrine), (+)-Norpseudoephedrine], `CNCC[C@H](Oc1cccc2ccccc12)c1cccs1` [Duloxetine] is higher in “Uptake data for SLC35G3, mean value (fold-increase over empty vector control)” value: 1.21 for the first, 1.26 for the second.

First: CNC1(c2ccccc2Cl)CCCCC1=O (stereo not shown) [Ketamine]
Second: COc1cc(CCN)cc(OC)c1OC [Mescaline]
The “Uptake data for SLC35G3, mean value (fold-increase over empty vector control)” value of the first is lower: 1.28 for the first, 1.34 for the second.

Same assay, conditions: 2.5 μM substrate, 2 min, HEK293

Going from `N[C@@H]1C[C@H]1c1ccccc1` (racemic) [Tranylcypromine] to `CN[C@@H](C)[C@H](O)c1ccccc1` [Ephedrine], the “Uptake data for SLC35G3, mean value (fold-increase over empty vector control)” value falls from 2.56 to 1.59.

Going from `CCN1CCCC1CNC(=O)c1cc(S(=O)(=O)CC)c(N)cc1OC` (stereo not shown) [Amisulpride] to `CCN(CC)CCNC(=O)c1cc(Cl)c(N)cc1OC` [Metoclopramide], the “Uptake data for SLC35G3, mean value (fold-increase over empty vector control)” value falls from 1.53 to 1.44.

Compared with `CN(C)CCC=C1c2ccccc2CCc2ccccc21` [Amitriptyline], `CN(C)CCCN1c2ccccc2CCc2ccccc21` [Imipramine] is lower in “Uptake data for SLC35G3, mean value (fold-increase over empty vector control)” value: 1.47 for the first, 1.40 for the second.

Going from `O=C1CCc2ccc(OCCCCN3CCN(c4cccc(Cl)c4Cl)CC3)cc2N1` [Aripiprazole] to `COc1ccccc1N1CCN(CCCNc2cc(=O)n(C)c(=O)n2C)CC1` [Urapidil], the “Uptake data for SLC35G3, mean value (fold-increase over empty vector control)” value rises from 1.22 to 1.37.

Going from `COC(=O)[C@H](Cc1ccccc1)NC(=O)[C@@H](N)CC(=O)O` [Aspartame] (H-Asp-Phe-OMe) to `CCOC(=O)[C@]1(c2ccccc2)CCC=C[C@H]1NC` [Nortilidine], the “Uptake data for SLC35G3, mean value (fold-increase over empty vector control)” value rises from 0.92 to 2.87.

Compared with `CNCC[C@@H](Oc1ccccc1C)c1ccccc1` [Atomoxetine], `CNCCCN1c2ccccc2CCc2ccccc21` [Desipramine] is higher in “Uptake data for SLC35G3, mean value (fold-increase over empty vector control)” value: 1.26 for the first, 1.31 for the second.

Going from `C[N+](C)(C)CC(=O)O` [Betaine] to `NCC1(CC(=O)O)CCCCC1` [Gabapentin], the “Uptake data for SLC35G3, mean value (fold-increase over empty vector control)” value rises from 0.84 to 0.90.

Compared with `OC(CCN1CCCCC1)(c1ccccc1)C1CC2C=CC1C2` (stereo not shown) [Biperiden], `O=C(O[C@H]1CN2CCC1CC2)N1CCc2ccccc2[C@@H]1c1ccccc1` [Solifenacin] is lower in “Uptake data for SLC35G3, mean value (fold-increase over empty vector control)” value: 1.50 for the first, 1.26 for the second.

Going from `CC(C)NCC(O)COc1ccc(COCCOC(C)C)cc1` (stereo not shown) [Bisoprolol] to `COCCc1ccc(OCC(O)CNC(C)C)cc1` (stereo not shown) [Metoprolol], the “Uptake data for SLC35G3, mean value (fold-increase over empty vector control)” value rises from 1.24 to 1.52.

Compared with `CCCCN1CCCCC1C(=O)Nc1c(C)cccc1C` (stereo not shown) [Bupivacaine], `Cc1cccc(C)c1NC(=O)C1CCCCN1C` (stereo not shown) [Mepivacaine] is lower in “Uptake data for SLC35G3, mean value (fold-increase over empty vector control)” value: 2.44 for the first, 2.30 for the second.

First: CC(NC(C)(C)C)C(=O)c1cccc(Cl)c1 (stereo not shown) [Bupropion]
Second: CCN(C)C(=O)Oc1cccc([C@H](C)N(C)C)c1 [Rivastigmine]
The “Uptake data for SLC35G3, mean value (fold-increase over empty vector control)” value of the first is lower: 1.29 for the first, 1.65 for the second.

Going from `O=C1CC2(CCCC2)CC(=O)N1CCCCN1CCN(c2ncccn2)CC1` [Buspirone] to `NC(=O)C1(N2CCCCC2)CCN(CCCC(=O)c2ccc(F)cc2)CC1` [Pipamperone], the “Uptake data for SLC35G3, mean value (fold-increase over empty vector control)” value falls from 1.72 to 1.33.

First: C=CCN1C[C@H](C(=O)N(CCCN(C)C)C(=O)NCC)C[C@@H]2c3cccc4[nH]cc(c34)C[C@H]21 [Cabergoline]
Second: C=CCN1CC[C@]23c4c5ccc(O)c4O[C@H]2C(=O)CC[C@@]3(O)[C@H]1C5 [Naloxone]
The “Uptake data for SLC35G3, mean value (fold-increase over empty vector control)” value of the first is lower: 1.49 for the first, 2.01 for the second.

First: CN1CCN(C2=Nc3cc(Cl)ccc3Nc3ccccc32)CC1 [Clozapine]
Second: OCCOCCN1CCN(C2=Nc3ccccc3Sc3ccccc32)CC1 [Quetiapine]
The “Uptake data for SLC35G3, mean value (fold-increase over empty vector control)” value of the first is higher: 1.44 for the first, 1.37 for the second.

Going from `N[C@@H]1CON=C1O` [Cycloserine (D-), Cycloserine] to `NC1Cc2cc3c(cc2C1)OCO3` [MDAI, 5,6-Methylenedioxy-2-aminoindane], the “Uptake data for SLC35G3, mean value (fold-increase over empty vector control)” value rises from 0.93 to 1.71.

First: N[C@@H]1CON=C1O [Cycloserine (L-), Cycloserine]
Second: CCN(CC)C(=O)C1(c2ccccc2)CC1CN (stereo not shown) [Milnacipran]
The “Uptake data for SLC35G3, mean value (fold-increase over empty vector control)” value of the first is lower: 1.11 for the first, 1.31 for the second.

First: CC(CCc1ccc(O)cc1)NCCc1ccc(O)c(O)c1 (stereo not shown) [Dobutamine]
Second: CC(Cc1ccc(O)cc1)NCC(O)c1cc(O)cc(O)c1 (stereo not shown) [Fenoterol]
The “Uptake data for SLC35G3, mean value (fold-increase over empty vector control)” value of the first is higher: 1.58 for the first, 1.19 for the second.

Going from `C[C@H]1c2cccc(O)c2C(=O)C2=C(O)[C@]3(O)C(=O)C(C(N)=O)=C(O)[C@@H](N(C)C)[C@@H]3[C@@H](O)[C@@H]21` [Doxycycline] to `COCCOC(=O)C1=C(C)NC(C)=C(C(=O)OC(C)C)C1c1cccc([N+](=O)[O-])c1` (stereo not shown) [Nimodipine], the “Uptake data for SLC35G3, mean value (fold-increase over empty vector control)” value falls from 1.34 to 1.26.

Going from `CN(C)CCOC(C)(c1ccccc1)c1ccccn1` (stereo not shown) [Doxylamine] to `COc1ccc(CN(CCN(C)C)c2ccccn2)cc1` [Pyrilamine], the “Uptake data for SLC35G3, mean value (fold-increase over empty vector control)” value rises from 1.10 to 1.74.

Going from `CC[C@@H](CO)NCCN[C@@H](CC)CO` [Ethambutol] to `CCCCNc1ccc(C(=O)OCCN(C)C)cc1` [Tetracaine], the “Uptake data for SLC35G3, mean value (fold-increase over empty vector control)” value rises from 0.99 to 1.54.

Compared with `CN[C@@H]1CCc2[nH]c3ccc(C(N)=O)cc3c2C1` [Frovatriptan (R-), Frovatriptan], `C[N+]1(CC2CC2)CC[C@]23c4c5ccc(O)c4O[C@H]2C(=O)CC[C@@]3(O)[C@H]1C5` (stereo partly shown) [Methylnaltrexon] is higher in “Uptake data for SLC35G3, mean value (fold-increase over empty vector control)” value: 1.06 for the first, 1.36 for the second.

Going from `COc1ccc2c3c1O[C@H]1C[C@@H](O)C=C[C@@]31CCN(C)C2` [Galantamine] to `COc1ccc2c3c1O[C@H]1C(=O)CC[C@H]4[C@@H](C2)N(C)CC[C@]314` [Hydrocodone], the “Uptake data for SLC35G3, mean value (fold-increase over empty vector control)” value rises from 1.57 to 1.71.

First: O=C(CCCN1CCC(O)(c2ccc(Cl)cc2)CC1)c1ccc(F)cc1 [Haloperidol]
Second: CC(C)(C)c1ccc(C(O)CCCN2CCC(C(O)(c3ccccc3)c3ccccc3)CC2)cc1 (stereo not shown) [Terfenadine]
The “Uptake data for SLC35G3, mean value (fold-increase over empty vector control)” value of the first is higher: 1.47 for the first, 1.28 for the second.

Compared with `C[C@H]1COc2c(N3CCN(C)CC3)c(F)cc3c(=O)c(C(=O)O)cn1c23` [Levofloxacin], `COc1c(N2C[C@@H]3CCCN[C@@H]3C2)c(F)cc2c(=O)c(C(=O)O)cn(C3CC3)c12` [Moxifloxacin] is higher in “Uptake data for SLC35G3, mean value (fold-increase over empty vector control)” value: 1.05 for the first, 1.34 for the second.

First: COc1ccc2c(c1)N(C[C@H](C)CN(C)C)c1ccccc1S2 [Levomepromazine]
Second: CC(CN(C)C)CN1c2ccccc2CCc2ccccc21 (stereo not shown) [Trimipramine]
The “Uptake data for SLC35G3, mean value (fold-increase over empty vector control)” value of the first is lower: 1.30 for the first, 1.47 for the second.

Compared with `CC12CC3CC(C)(C1)CC(N)(C3)C2` [Memantine], `CNCC1CCCCC1(O)c1cccc(OC)c1` (stereo not shown) [N-Desmethyltramadol] is higher in “Uptake data for SLC35G3, mean value (fold-increase over empty vector control)” value: 1.19 for the first, 1.38 for the second.

First: C[C@@H](O)[C@H]1C(=O)N2C(C(=O)O)=C(S[C@@H]3CN[C@H](C(=O)N(C)C)C3)[C@H](C)[C@H]12 [Meropenem]
Second: COc1ccc(C(CN(C)C)C2(O)CCCCC2)cc1 (stereo not shown) [Venlafaxine]
The “Uptake data for SLC35G3, mean value (fold-increase over empty vector control)” value of the first is lower: 1.27 for the first, 1.60 for the second.

Compared with `COc1ccc(OC)c(C(O)CNC(=O)CN)c1` (stereo not shown) [Midodrine], `CNC[C@H](O)c1cccc(O)c1` [Phenylephrine] is lower in “Uptake data for SLC35G3, mean value (fold-increase over empty vector control)” value: 1.33 for the first, 1.10 for the second.

Going from `CNCC(c1ccc(OC)cc1)C1(O)CCCCC1` (stereo not shown) [N-Desmethylvenlafaxine] to `CC(C)NCC(O)COc1cccc2ccccc12` (stereo not shown) [Propranolol], the “Uptake data for SLC35G3, mean value (fold-increase over empty vector control)” value rises from 1.20 to 1.27.

First: C=C1CC[C@@]2(O)[C@H]3Cc4ccc(O)c5c4[C@@]2(CCN3CC2CC2)[C@H]1O5 [Nalmefen]
Second: O=C1c2cccc3c2[C@H](CCC3)CN1[C@@H]1CN2CCC1CC2 [Palonosetron]
The “Uptake data for SLC35G3, mean value (fold-increase over empty vector control)” value of the first is higher: 1.99 for the first, 1.36 for the second.

Going from `Fc1ccc([C@@H]2CCNC[C@H]2COc2ccc3c(c2)OCO3)cc1` [Paroxetin] to `Cc1nc2n(c(=O)c1CCN1CCC(c3noc4cc(F)ccc34)CC1)CCCC2` [Risperidone], the “Uptake data for SLC35G3, mean value (fold-increase over empty vector control)” value rises from 1.30 to 1.41.

First: C#CCN[C@@H]1CCc2ccccc21 [Rasagiline]
Second: NCCc1ccc(O)cc1 [Tyramine]
The “Uptake data for SLC35G3, mean value (fold-increase over empty vector control)” value of the first is higher: 1.90 for the first, 1.61 for the second.

Going from `CCCN(CCC)CCc1cccc2c1CC(=O)N2` [Ropinirole] to `COCCn1c2c([n+](Cc3cnccn3)c1C)C(=O)c1ccccc1C2=O` [YM155], the “Uptake data for SLC35G3, mean value (fold-increase over empty vector control)” value falls from 1.37 to 1.11.

First: CCOc1ccccc1OCCN[C@H](C)Cc1ccc(OC)c(S(N)(=O)=O)c1 [Tamsulosin]
Second: COc1cc(Cc2cnc(N)nc2N)cc(OC)c1OC [Trimethoprim]
The “Uptake data for SLC35G3, mean value (fold-increase over empty vector control)” value of the first is higher: 1.39 for the first, 1.24 for the second.

With `COc1cc2nc(N3CCN(C(=O)C4CCCO4)CC3)nc(N)c2cc1OC` (stereo not shown) [Terazosin] the “Uptake data for SLC35G3, mean value (fold-increase over empty vector control)” value was 1.49.
